Assay results taken from patent US4267112A, “Antibiotic U-58,431” (The Upjohn Company, priority 1979, dated 1981).

Experiments:
[1] = solubilities; type: physicochemical
[2] = system: Candida albicans UC 7164; assay: antifungal agar dilution test; type: cell-based; set-up: key: -: inhibition; +: no inhibition; details: 28° C., 72 hours
Experimental: (§1) The antifungal spectrum for antibiotic U-58,431 was conducted on a standard agar […] assay. The results are as follows: An agar dilution method is used. 100 mg amounts of material is solubilized in 1 ml of dimethylformamide (DMF) and diluted to 10 ml with mycophil Broth (BBL labs.) unless completely soluble in water. The material to be tested is incorporated in melted (48° C.) mycophil Agar at concentrations of 1000, 100, 10 and 1 mcg/ml. Fifteen ml of agar is pipetted into a petri dish. After solidification, the surface is streaked with agar spore suspensions of human fungal pathogens. The suspensions are made by adding 10 ml sterile distilled water to agar […] of the test organisms. The slant surface is scraped with a sterile inoculating needle, and 0.5 ml of this suspension is added to 9.5 ml melted (48° C.) mycophil Agar in a stamp streak well. (Each stamp streak base has 6 wells.) The streaked plates are incubated at 28° C. for 72 hours at which time results are recorded. Readings are by visual observation.

[3] = system: Geotrichum sp. UC 1207; assay: antifungal agar dilution test; type: cell-based; set-up: key: -: inhibition; +: no inhibition; details: 28° C., 72 hours
Experimental: as §1

[4] = system: Sporotrichum schenckii UC 1364; assay: antifungal agar dilution test; type: cell-based; set-up: key: -: inhibition; +: no inhibition; details: 28° C., 72 hours
Experimental: as §1

[5] = system: Trichophyton rubrum UC 1458; assay: antifungal agar dilution test; type: cell-based; set-up: key: -: inhibition; +: no inhibition; details: 28° C., 72 hours
Experimental: as §1

[6] = system: Candida albicans UC 7163; assay: antifungal agar dilution test; type: cell-based; set-up: key: -: inhibition; +: no inhibition; details: 28° C., 72 hours
Experimental: as §1

[7] = system: Cryptococcus neoformans UC 1139; assay: antifungal agar dilution test; type: cell-based; set-up: key: -: inhibition; +: no inhibition; details: 28° C., 72 hours
Experimental: as §1

[8] = system: Trichophyton violaceum UC 1459; assay: antifungal agar dilution test; type: cell-based; set-up: key: -: inhibition; +: no inhibition; details: 28° C., 72 hours
Experimental: as §1

[9] = system: Nocardia asteroides UC 2052; assay: antifungal agar dilution test; type: cell-based; set-up: key: -: inhibition; +: no inhibition; details: 28° C., 72 hours
Experimental: as §1

[10] = system: Trichophyton asteroides UC 4775; assay: antifungal agar dilution test; type: cell-based; set-up: key: -: inhibition; +: no inhibition; details: 28° C., 72 hours
Experimental: as §1

[11] = system: Trichophyton mentagrophytes UC 4860; assay: antifungal agar dilution test; type: cell-based; set-up: key: -: inhibition; +: no inhibition; details: 28° C., 72 hours
Experimental: as §1

[12] = system: Trichophyton mentagrophytes UC 4797; assay: antifungal agar dilution test; type: cell-based; set-up: key: -: inhibition; +: no inhibition; details: 28° C., 72 hours
Experimental: as §1

[13] = system: Cryptococcus neoformans UC 4869; assay: antifungal agar dilution test; type: cell-based; set-up: key: -: inhibition; +: no inhibition; details: 28° C., 72 hours
Experimental: as §1

[14] = system: Blastomyces dermatidis UC 1466; assay: antifungal agar dilution test; type: cell-based; set-up: key: -: inhibition; +: no inhibition; details: 28° C., 72 hours
Experimental: as §1

[15] = system: Hormodendrum compactum UC 1222; assay: antifungal agar dilution test; type: cell-based; set-up: key: -: inhibition; +: no inhibition; details: 28° C., 72 hours
Experimental: as §1

[16] = system: Pseudomonas aeruginosa UC 95; assay: antibacterial broth MIC assay; type: cell-based; details: Brain Heart Infusion Broth, 42 hours
Experimental: (§2) The antibacterial assay is a standard microbiological broth assay. The MIC is determined by standard methods using two-fold dilutions of the antibiotic in Brian Heart Infusion Broth (Difco Lab., Detroit, Michigan). The inocula are overnight cultures of the test organisms, diluted so that the final population contains approximately 10^5 cells/ml. The tubes are incubated at 28° to 37° C. for 42 hours. The lowest antibiotic concentration which allows no growth=MIC or minimum inhibitory concentration.

[17] = system: Staphylococcus aureus 284 UC 76; assay: antibacterial broth MIC assay; type: cell-based; details: Brain Heart Infusion Broth, 42 hours
Experimental: as §2

[18] = system: Salmonella schottmuelleri UC 126; assay: antibacterial broth MIC assay; type: cell-based; details: Brain Heart Infusion Broth, 42 hours
Experimental: as §2

[19] = system: Staphylococcus aureus UC 746; assay: antibacterial broth MIC assay; type: cell-based; details: Brain Heart Infusion Broth, 42 hours
Experimental: as §2

[20] = system: Klebsiella pneumoniae UC 58; assay: antibacterial broth MIC assay; type: cell-based; details: Brain Heart Infusion Broth, 42 hours
Experimental: as §2

[21] = system: Proteus vulgaris UC 93; assay: antibacterial broth MIC assay; type: cell-based; details: Brain Heart Infusion Broth, 42 hours
Experimental: as §2

[22] = system: Staphylococcus aureus UC 570; assay: antibacterial broth MIC assay; type: cell-based; details: Brain Heart Infusion Broth, 42 hours
Experimental: as §2

[23] = system: Streptococcus hemolyticus UC 152; assay: antibacterial broth MIC assay; type: cell-based; details: Brain Heart Infusion Broth, 42 hours
Experimental: as §2

[24] = system: Escherichia coli UC 45; assay: antibacterial broth MIC assay; type: cell-based; details: Brain Heart Infusion Broth, 42 hours
Experimental: as §2

[25] = system: Diplococcus pneumoniae UC 41; assay: antibacterial broth MIC assay; type: cell-based; details: Brain Heart Infusion Broth, 42 hours
Experimental: as §2

[26] = system: Streptococcus faecalis UC 694; assay: antibacterial broth MIC assay; type: cell-based; details: Brain Heart Infusion Broth, 42 hours
Experimental: as §2

[27] = system: P. vulgaris; assay: activity against P. vulgaris (general statement); type: cell-based
Experimental: as §2

[28] = system: fungi; assay: antifungal activity (general statement); type: cell-based
Experimental: An agar dilution method is used. 100 mg amounts of material is solubilized in 1 ml of dimethylformamide (DMF) and diluted to 10 ml with mycophil Broth (BBL labs.) unless completely soluble in water. The material to be tested is incorporated in melted (48° C.) mycophil Agar at concentrations of 1000, 100, 10 and 1 mcg/ml. Fifteen ml of agar is pipetted into a petri dish. After solidification, the surface is streaked with agar spore suspensions of human fungal pathogens. The suspensions are made by adding 10 ml sterile distilled water to agar slants of the test organisms. The slant surface is scraped with a sterile inoculating needle, and 0.5 ml of this suspension is added to 9.5 ml melted (48° C.) mycophil Agar in a stamp streak well. (Each stamp streak base has 6 wells.)
The streaked plates are incubated at 28° C. for 72 hours at which time results are recorded. Readings are by visual observation.

[29] = system: various Gram-positive and Gram-negative bacteria; assay: antibacterial activity (general statement); type: cell-based
Experimental: as §2

## C[C@H]1O[C@@H]2C3=C(C(=O)C(=N)C(C(N)=O)=C3O)[C@@]1(O)C[C@H]2O [U-58,431]
[1]; chloroform
  solubility: slightly soluble
[1]; cold methylene chloride
  solubility: slightly soluble
[1]; ethanol
  solubility: soluble
[1]; methanol
  solubility: soluble
[1]; water
  solubility: soluble
[2]; 1 mcg/ml
  inhibition at indicated concentration: +
[2]; 10 mcg/ml
  inhibition at indicated concentration: +
[2]; 100 mcg/ml
  inhibition at indicated concentration: +
[2]; 1000 mcg/ml
  inhibition at indicated concentration: +
[3]; 1 mcg/ml
  inhibition at indicated concentration: +
[3]; 10 mcg/ml
  inhibition at indicated concentration: +
[3]; 100 mcg/ml
  inhibition at indicated concentration: +
[3]; 1000 mcg/ml
  inhibition at indicated concentration: +
[4]; 1 mcg/ml
  inhibition at indicated concentration: +
[4]; 10 mcg/ml
  inhibition at indicated concentration: +
[4]; 100 mcg/ml
  inhibition at indicated concentration: +
[4]; 1000 mcg/ml
  inhibition at indicated concentration: +
[5]; 1 mcg/ml
  inhibition at indicated concentration: +
[5]; 10 mcg/ml
  inhibition at indicated concentration: +
[5]; 100 mcg/ml
  inhibition at indicated concentration: +
[5]; 1000 mcg/ml
  inhibition at indicated concentration: -
[6]; 1 mcg/ml
  inhibition at indicated concentration: +
[6]; 10 mcg/ml
  inhibition at indicated concentration: +
[6]; 100 mcg/ml
  inhibition at indicated concentration: +
[6]; 1000 mcg/ml
  inhibition at indicated concentration: +
[7]; 1 mcg/ml
  inhibition at indicated concentration: +
[7]; 10 mcg/ml
  inhibition at indicated concentration: +
[7]; 100 mcg/ml
  inhibition at indicated concentration: +
[7]; 1000 mcg/ml
  inhibition at indicated concentration: +
[8]; 1 mcg/ml
  inhibition at indicated concentration: +
[8]; 10 mcg/ml
  inhibition at indicated concentration: +
[8]; 100 mcg/ml
  inhibition at indicated concentration: +
[8]; 1000 mcg/ml
  inhibition at indicated concentration: +
[9]; 1 mcg/ml
  inhibition at indicated concentration: +
[9]; 10 mcg/ml
  inhibition at indicated concentration: +
[9]; 100 mcg/ml
  inhibition at indicated concentration: +
[9]; 1000 mcg/ml
  inhibition at indicated concentration: -
[10]; 1 mcg/ml
  inhibition at indicated concentration: +
[10]; 10 mcg/ml
  inhibition at indicated concentration: +
[10]; 100 mcg/ml
  inhibition at indicated concentration: +
[10]; 1000 mcg/ml
  inhibition at indicated concentration: +
[11]; 1 mcg/ml
  inhibition at indicated concentration: +
[11]; 10 mcg/ml
  inhibition at indicated concentration: +
[11]; 100 mcg/ml
  inhibition at indicated concentration: +
[11]; 1000 mcg/ml
  inhibition at indicated concentration: +
[12]; 1 mcg/ml
  inhibition at indicated concentration: +
[12]; 10 mcg/ml
  inhibition at indicated concentration: +
[12]; 100 mcg/ml
  inhibition at indicated concentration: +
[12]; 1000 mcg/ml
  inhibition at indicated concentration: -
[13]; 1 mcg/ml
  inhibition at indicated concentration: +
[13]; 10 mcg/ml
  inhibition at indicated concentration: +
[13]; 100 mcg/ml
  inhibition at indicated concentration: +
[13]; 1000 mcg/ml
  inhibition at indicated concentration: +
[14]; 1 mcg/ml
  inhibition at indicated concentration: +
[14]; 10 mcg/ml
  inhibition at indicated concentration: +
[14]; 100 mcg/ml
  inhibition at indicated concentration: +
[14]; 1000 mcg/ml
  inhibition at indicated concentration: +
[15]; 1 mcg/ml
  inhibition at indicated concentration: +
[15]; 10 mcg/ml
  inhibition at indicated concentration: +
[15]; 100 mcg/ml
  inhibition at indicated concentration: +
[15]; 1000 mcg/ml
  inhibition at indicated concentration: +
[16]
  Minimum Inhibitory Concentration: 125 µg/mL
[17]
  Minimum Inhibitory Concentration: 125 µg/mL
[18]
  Minimum Inhibitory Concentration: 62.5 µg/mL
[19]
  Minimum Inhibitory Concentration: 125 µg/mL
[20]
  Minimum Inhibitory Concentration: 125 µg/mL
[21]
  Minimum Inhibitory Concentration: 250 µg/mL
[22]
  Minimum Inhibitory Concentration: 125 µg/mL
[23]
  Minimum Inhibitory Concentration: 125 µg/mL
[24]
  Minimum Inhibitory Concentration: 250 µg/mL
[25]
  Minimum Inhibitory Concentration: 1.0 µg/mL
[26]
  Minimum Inhibitory Concentration: 250 µg/mL
[27]
  activity against P. vulgaris: active
[28]
  activity against fungi: active
[29]
  activity against Gram-positive and Gram-negative bacteria: active
